Measured values published in publication PMC4698308, “A new amino acid substitution (Ala-205-Phe) in acetolactate synthase (ALS) confers broad spectrum resistance to ALS-inhibiting herbicides” (Planta, 2015).
Like-named read-outs stand apart in the source and are kept apart here.

Experiments:
[1] = tested on: recombinant Arabidopsis thaliana ALS variant A205V; format: biochemical; conditions: IC50 mutant divided by IC50 sensitive ALS; max inhibitor concentration 1.00 × 10^−04 M
Method: (§1) Effects of SNPs identified in sequencing analysis on ALS activity were studied using A. thaliana. The ALS gene from A. thaliana and derivatives thereof were de novo synthesized and subcloned into pET-24d(+) (Life Technologies. Grand Island, NY, USA) using NcoI and XhoI restriction sites. Protein constructs contained an 85 amino acid N-terminal deletion (chloroplast transit peptide) and the addition of an N-terminal Hexa-histidine tag to facilitate purification.
(§2) Lysis was performed by at least two passes through a fluidizer, followed by centrifuging at 80000×g for 30 min at 4 °C. […] Fractions containing ALS protein were pooled and stored at −20 °C.
(§3) Inhibitors, purchased from Sigma as Pestanal standards (Sigma-Aldrich, Deisenhofen, Germany), were dissolved in DMSO and added to the reaction mixture. Inhibitors evaluated included imidazolinone, sulfonylurea, triazolopyrimidines, sulfonylamino-carbonyl- triazolinones, and pyrimidinyl (thio) benzoate herbicides. The reaction mixture was incubated at 30 °C for 60 min and stopped with 70 µl of H2SO4 (3 M). The reaction was then heated to 56 °C for 15 min to convert acetolactate into acetoin. […] For each inhibitor, resistance factors were calculated by dividing IC50 values for mutant and sensitive ALS.

[2] = tested on: recombinant Arabidopsis thaliana ALS variant W574L; format: biochemical; conditions: IC50 mutant divided by IC50 sensitive ALS; max inhibitor concentration 1.00 × 10^−04 M
Method: as §1, §2, §3

[3] = target: T1, recombinant Arabidopsis thaliana ALS wild-type enzyme (WT—sensitive) (Arabidopsis thaliana, UniProt P17597); test: biochemical
T1 construct: Protein constructs contained an 85 amino acid N-terminal deletion (chloroplast transit peptide); Hexa-histidine tag (N); made in house
Method: as §1, §2, §3

[4] = tested on: annual bluegrass (Poa annua L.); test: Whole plant non-target site resistance experiment with P450 inhibitors malathion or PBO (control 21 days after treatment); format: in vivo; conditions: for Annual bluegrass control S: susceptible (S)
Method: Additional experiments were conducted during March–April 2015 to determine if non-target site based mechanisms conferred resistance to ALS inhibitors in our annual bluegrass population, POAAN-R3. Plants (RP6, RP7, and S) were cultured in plastic conical containers as previously described and allowed to acclimate to the glasshouse for 18 days prior to initiating two experiments.
In the first experiment, resistant (RP6, RP7) and susceptible (S) plants were treated with foramsulfuron at 29 g ha^−1, trifloxysulfuron (Monument. Syngenta Professional Products. Greensboro, NC, USA) at 27.8 g ha^−1, imazaquin (Image. BASF Corporation. Research Triangle Park, NC) at 27.5 g ha^−1, or bispyribac-sodium (Velocity. Valent USA Corporation. Walnut Creek, CA, USA) at 70 g ha^−1. All herbicides were applied alone or in combination with either malathion (Spectrum Group. St. Louis, MO, USA) at 1000 g ha^−1 or piperonyl butoxide (Sigma Aldrich. St. Louis, MO, USA) at 2100 g ha^−1. Malathion and piperonyl butoxide (PBO) inhibit cytochrome P450 monooxygenases involved in metabolism of ALS inhibiting herbicides and are commonly used at the application rates tested herein to evaluate non-target site based resistance mechanisms in weeds (Burnet et al. [1994]; Christopher et al. [1992]; Yu and Powles [2014b]; Rao et al. [1995]). All herbicides were mixed in water carrier and included non-ionic surfactant at 0.25 % v/v. Malathion and PBO were mixed with methanol and de-ionized water (50:50) and applied 60 min prior to herbicide application using a previously described enclosed spray chamber on 13 February 2015.
Annual bluegrass control was visually assessed on a 0 (i.e., no control) to 100 % (i.e., complete kill) scale relative to the non-treated 21 days after treatment. After all control data had been collected, aboveground biomass was harvested from each plastic conical container at the soil line using scissors, dried at 100 °C, and weighed. Treatments were arranged as a 3 × 5 × 3 factorial with three plant selections (RP6, RP7, S), five herbicides (foramsulfuron, trifloxysulfuron, imazaquin, bispyribac-sodium, non-treated) and three P450 inhibitor treatments (malathion, PBO, non-treated) in a completely randomized design with four replications and repeated in separate glasshouses during February 2015.

[5] = tested on: annual bluegrass (Poa annua L.); test: Whole plant non-target site resistance experiment, foramsulfuron vs sulfometuron (control and plant height 28 days after treatment); format: in vivo
Method: A second experiment was conducted to determine if non-target mechanisms could confer resistance to ALS inhibiting herbicides in our annual bluegrass population, POAAN-R3. ALS-resistant (RP1–RP8) and susceptible (S) plants were cultured in plastic conical containers under previously described glasshouse conditions for 28 days before being treated with foramsulfuron (29 g ha^−1) or sulfometuron-methyl (Oust XP; Dupont Professional Products. Wilmington, DE, USA) at 105 g ai ha^−1. Sulfometuron-methyl is an ALS inhibiting herbicide not metabolized by cytochrome P450 monooxygenases; therefore, it can be used to discern if weed populations survive ALS inhibiting herbicide treatment via target- or non-target site based mechanisms (Christopher et al. [1992]). Per label recommendations, sulfometuron-methyl included non-ionic surfactant at 0.25 % v/v. Treatments were mixed in water carrier applied in an enclosed spray chamber, as previously described, on 13 March 2015.
Annual bluegrass control was visually assessed on a 0 (i.e., no control) to 100 % (i.e., complete kill) scale relative to the non-treated 28 days after treatment. After all control data had been collected, plant height data were collected using a ruler placed at the soil surface of each plastic conical container and recording the distance to the tip of the bud leaf. Treatments were arranged as a 9 × 3 factorial with nine plant selections (RP1–RP8, S) and three herbicides (foramsulfuron, sulfometuron-methyl, non-treated) in a completely randomized design with four replications and repeated in separate glasshouses during March 2015.

T1 sequence (P17597 86-670): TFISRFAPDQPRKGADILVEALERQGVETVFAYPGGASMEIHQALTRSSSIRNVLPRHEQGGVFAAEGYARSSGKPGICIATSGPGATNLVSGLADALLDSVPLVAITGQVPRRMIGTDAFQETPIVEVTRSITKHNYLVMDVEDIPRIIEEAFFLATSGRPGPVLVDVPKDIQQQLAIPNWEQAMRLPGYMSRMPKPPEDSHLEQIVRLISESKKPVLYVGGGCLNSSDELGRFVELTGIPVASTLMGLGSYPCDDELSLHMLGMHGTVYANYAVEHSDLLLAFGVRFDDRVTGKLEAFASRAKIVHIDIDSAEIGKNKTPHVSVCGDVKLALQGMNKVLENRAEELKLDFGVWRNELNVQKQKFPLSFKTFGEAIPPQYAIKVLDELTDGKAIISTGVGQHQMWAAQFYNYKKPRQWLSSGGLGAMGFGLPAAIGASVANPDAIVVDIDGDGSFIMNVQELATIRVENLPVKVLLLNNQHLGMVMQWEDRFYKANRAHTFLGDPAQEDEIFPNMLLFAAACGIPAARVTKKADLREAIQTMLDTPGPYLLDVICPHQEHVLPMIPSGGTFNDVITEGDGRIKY

Compound: CC(C)C1(C)N=C(c2ncccc2C(=O)O)NC1=O (stereo not drawn) [Imazapyr]
- Resistance factor A205V [1]: 16
- Resistance factor W574L [2]: 16
- IC50 [3]: 6060 nM

Compound: O=C(Nc1nc(OC(F)F)cc(OC(F)F)n1)NS(=O)(=O)c1ccccc1C(=O)O [Primisulfuron]
- Resistance factor A205V [1]: 429
- Resistance factor W574L [2]: 5728
- IC50 [3]: 3.14 nM

Compound: COc1cc(OC)n2nc(NS(=O)(=O)c3c(C(F)(F)F)ccnc3OC)nc2n1 [Pyroxulam]
- Resistance factor A205V [1]: 162
- Resistance factor W574L [2]: 24,268
- IC50 ([3]; concentration for 50 % inhibition of WT enzyme, max inhibitor concentration 1.00 × 10^−04 M, read-out: WT sensitivity [IC50]): 4.12 nM

Compound: COc1nc(C)nc(NC(=O)NS(=O)(=O)c2ccccc2CCC(F)(F)F)n1 [Prosulfuron]
- Resistance factor A205V [1]: 88
- Resistance factor W574L [2]: 3524
- IC50 [3]: 2.88 nM

Compound: COc1cc(OC)nc(Oc2cccc(Oc3nc(OC)cc(OC)n3)c2C(=O)O)n1 [Bispyribac-sodium]
- Annual bluegrass control RP6 ([4]; RP6, herbicide alone, foramsulfuron 29, trifloxysulfuron 27.8, imazaquin 27.5, bispyribac-sodium 70 g ha^−1): 28%
- Annual bluegrass control RP6 ([4]; RP6, herbicide with PBO 2100 g ha^−1 applied 60 min prior): 20%
- Annual bluegrass control RP6 ([4]; RP6, herbicide with malathion 1000 g ha^−1 applied 60 min prior): 32%
- Annual bluegrass control RP7 ([4]; RP7, herbicide alone, foramsulfuron 29, trifloxysulfuron 27.8, imazaquin 27.5, bispyribac-sodium 70 g ha^−1): 7%
- Annual bluegrass control RP7 ([4]; RP7, herbicide with PBO 2100 g ha^−1 applied 60 min prior): 14%
- Annual bluegrass control RP7 ([4]; RP7, herbicide with malathion 1000 g ha^−1 applied 60 min prior): 47%
- Annual bluegrass control S ([4]; herbicide alone, foramsulfuron 29, trifloxysulfuron 27.8, imazaquin 27.5, bispyribac-sodium 70 g ha^−1): 90%
- Annual bluegrass control S ([4]; herbicide with PBO 2100 g ha^−1 applied 60 min prior): 86%
- Annual bluegrass control S ([4]; herbicide with malathion 1000 g ha^−1 applied 60 min prior): 92%

Compound: COC(=O)c1ccccc1S(=O)(=O)NC(=O)Nc1nc(C)cc(C)n1 [Sulfometuron, Sulfometuron-methyl]
- Annual bluegrass control RP1 ([5]; RP1, 28 days after treatment, minimum of two tillers, foramsulfuron 29, sulfometuron 105 g ha^−1): 24%
- Annual bluegrass height RP1 ([5]; RP1, plant height 28 days after treatment, foramsulfuron 29, sulfometuron 105 g ha^-1, non-treated 118 mm): 76 mm
- Annual bluegrass control RP2 ([5]; RP2, 28 days after treatment, minimum of two tillers, foramsulfuron 29, sulfometuron 105 g ha^−1): 29%
- Annual bluegrass height RP2 ([5]; RP2, plant height 28 days after treatment, foramsulfuron 29, sulfometuron 105 g ha^-1, non-treated 129 mm): 65 mm
- Annual bluegrass control RP3 ([5]; RP3, 28 days after treatment, minimum of two tillers, foramsulfuron 29, sulfometuron 105 g ha^−1): 21%
- Annual bluegrass height RP3 ([5]; RP3, plant height 28 days after treatment, foramsulfuron 29, sulfometuron 105 g ha^-1, non-treated 173 mm): 78 mm
- Annual bluegrass control RP4 ([5]; RP4, 28 days after treatment, minimum of two tillers, foramsulfuron 29, sulfometuron 105 g ha^−1): 21%
- Annual bluegrass height RP4 ([5]; RP4, plant height 28 days after treatment, foramsulfuron 29, sulfometuron 105 g ha^-1, non-treated 140 mm): 71 mm
- Annual bluegrass control RP5 ([5]; RP5, 28 days after treatment, minimum of two tillers, foramsulfuron 29, sulfometuron 105 g ha^−1): 26%
- Annual bluegrass height RP5 ([5]; RP5, plant height 28 days after treatment, foramsulfuron 29, sulfometuron 105 g ha^-1, non-treated 114 mm): 68 mm
- Annual bluegrass control RP6 ([5]; RP6, 28 days after treatment, minimum of two tillers, foramsulfuron 29, sulfometuron 105 g ha^−1): 76%
- Annual bluegrass height RP6 ([5]; RP6, plant height 28 days after treatment, foramsulfuron 29, sulfometuron 105 g ha^-1, non-treated 106 mm): 56 mm
- Annual bluegrass control RP7 ([5]; RP7, 28 days after treatment, minimum of two tillers, foramsulfuron 29, sulfometuron 105 g ha^−1): 28%
- Annual bluegrass height RP7 ([5]; RP7, plant height 28 days after treatment, foramsulfuron 29, sulfometuron 105 g ha^-1, non-treated 125 mm): 69 mm
- Annual bluegrass control RP8 ([5]; RP8, 28 days after treatment, minimum of two tillers, foramsulfuron 29, sulfometuron 105 g ha^−1): 21%
- Annual bluegrass height RP8 ([5]; RP8, plant height 28 days after treatment, foramsulfuron 29, sulfometuron 105 g ha^-1, non-treated 132 mm): 67 mm
- Annual bluegrass control S ([5]; susceptible (S), 28 days after treatment, minimum of two tillers, foramsulfuron 29, sulfometuron 105 g ha^−1): 99%
- Annual bluegrass height S ([5]; susceptible (S), plant height 28 days after treatment, foramsulfuron 29, sulfometuron 105 g ha^-1, non-treated 111 mm): 9 mm
